Laboratory results from patent US20260199484A1, “PROTAC DEGRADERS OF MLLT1 AND/OR MLLT3” (DARK BLUE THERAPEUTICS LTD, priority 2024, published 2026).

Key:
MLLT1 = biological target: T1, MLLT1 (Homo sapiens, UniProt Q03111); experiment: MLLT1 degradation assay in MV4-11 cells (JESS, 24 h); assay type: cell-based; design: endogenous in cells; host or cells: MV4-11 (ATCC CRL-9591); details: vs DMSO control
T1 sequence (Q03111 1-559): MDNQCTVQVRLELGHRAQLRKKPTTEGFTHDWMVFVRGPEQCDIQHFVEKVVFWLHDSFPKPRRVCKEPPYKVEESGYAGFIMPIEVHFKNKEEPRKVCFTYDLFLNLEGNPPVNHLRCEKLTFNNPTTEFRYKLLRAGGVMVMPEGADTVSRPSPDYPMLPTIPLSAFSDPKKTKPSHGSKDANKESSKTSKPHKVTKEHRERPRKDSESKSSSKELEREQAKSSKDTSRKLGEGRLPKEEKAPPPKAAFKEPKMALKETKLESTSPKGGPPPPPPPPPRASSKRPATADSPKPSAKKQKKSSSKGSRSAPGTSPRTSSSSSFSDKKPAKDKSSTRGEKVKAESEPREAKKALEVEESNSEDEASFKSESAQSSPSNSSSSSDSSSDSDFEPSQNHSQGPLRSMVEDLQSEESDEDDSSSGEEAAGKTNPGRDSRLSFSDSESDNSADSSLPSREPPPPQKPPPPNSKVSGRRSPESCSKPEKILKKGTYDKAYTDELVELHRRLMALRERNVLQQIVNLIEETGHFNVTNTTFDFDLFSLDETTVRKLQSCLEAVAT
Summary of the method: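 MV4-11 cells treated at 1000, 100 and 10 nM (0.1% DMSO) for 24 h at 37° C; lysates (4 ug protein) run on JESS capillary immunoassay with MLLT1 and GAPDH antibodies. Peak areas give % degradation versus DMSO, binned A (≥75%) to D (<25%).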

MV4-11 cells = experiment: MV4-11 cellular proliferative assay, Assay Format B (CTG 2.0, 168 h); assay type: cell-based; details: Homo sapiens, Assay format B, 168 h, read-out: IC50 (MV4-11 cellular proliferative assay)
Method: MV4-11 cells at a confluency of ~50-80% was used for cell growth assay. 600 cells/well in a 384-well opaque cell culture plate (6007680; Perkin Elmer) were seeded in 40 μL of complete medium (IMDM+10% FBS+1× Penicillin-Streptomycin). Cells were incubated overnight at 37° C., 5% CO2. 10 mM DMSO stocks were prepared, cells were treated with 10 concentrations of test compounds starting from 1 uM or 100 nM, 3-fold dilution in 10 uL (5× concentration) of complete medium. Final DMSO concentration was 0.3%. Culture plates were centrifuged at 40×g, 30s. Cells were incubated with compounds for 168 h (7 days). After 7 days, 20 uL CTG 2.0 reagent (G9242; Promega) was added per well and luminescence reading was taken in Envision Xcite 2105 multimode plate reader. Data was analyzed in GraphPad Prism 10.0 and data was shown as % viability with respect to DMSO control and dose-response curves were generated using four parameter logistic regression. Assay quality was determined by z-factor calculation using positive and negative controls.

Row | Compound | MLLT1% Degradation @ 0.01 μM (MLLT1) | MLLT1% Degradation @ 0.1 μM (MLLT1) | MLLT1% Degradation @ 1 μM (MLLT1) | IC50 (MV4-11 cells) [nM]
1 | Cc1nn(CCCCCCCC=C(Cl)c2ccc3c(c2)n(C)c(=O)n3C2CCC(=O)NC2=O)c2cc(C(=O)Nc3cc4[nH]c([C@H]5CCCN5C)cc4cn3)ccc12 (mixture of isomers) [Example 40] | A (Category A: A≥75% degradation) | A (Category A: A≥75% degradation) | A (Category A: A≥75% degradation) | < 100
2 | Cc1nn(CCCCCCCC#Cc2cccc3c2CN([C@H]2CCC(=O)NC2=O)C3=O)c2cc(C(=O)Nc3cc4[nH]c([C@H]5CCCN5C)cc4cn3)ccc12 (relative stereo) [Example 98, 1-(9-(2-((rel-S)-2,6-dioxopiperidin-3-yl)-1-oxoisoindolin-4-yl)non-8-yn-1-yl)-3-methyl-N-(2-((R)-1-methylpyrrolidin-2-yl)-1H-pyrrolo[3,2-c]pyridin-6-yl)-1H-indazole-6-carboxamide] | A (Category A: A≥75% degradation) | A (Category A: A≥75% degradation) | A (Category A: A≥75% degradation) | < 100
3 | Cc1nn(CCCCCCCC#Cc2cccc3c2CN([C@@H]2CCC(=O)NC2=O)C3=O)c2cc(C(=O)Nc3cc4[nH]c([C@H]5CCCN5C)cc4cn3)ccc12 (relative stereo) [Example 99, 1-(9-(2-((rel-R)-2,6-dioxopiperidin-3-yl)-1-oxoisoindolin-4-yl)non-8-yn-1-yl)-3-methyl-N-(2-((R)-1-methylpyrrolidin-2-yl)-1H-pyrrolo[3,2-c]pyridin-6-yl)-1H-indazole-6-carboxamide] | A (Category A: A≥75% degradation) | A (Category A: A≥75% degradation) | A (Category A: A≥75% degradation) | < 100
4 | Cc1nn(CCCCCCCC#Cc2cccc3c2CN([C@@H]2CCC(=O)NC2=O)C3=O)c2cc(C(=O)Nc3cc4[nH]c([C@H]5CCCN5C)c(Cl)c4cn3)ccc12 (relative stereo) [Example 101, N-(3-chloro-2-((R)-1-methylpyrrolidin-2-yl)-1H-pyrrolo[3,2-c]pyridin-6-yl)-1-(9-(2-((rel-R)-2,6-dioxopiperidin-3-yl)-1-oxoisoindolin-4-yl)non-8-yn-1-yl)-3-methyl-1H-indazole-6-carboxamide] | – | – | – | < 100
5 | Cc1nn(CCCCCCCC#Cc2cccc3c2CN([C@H]2CCC(=O)NC2=O)C3=O)c2cc(C(=O)Nc3cc4[nH]c([C@H]5CCCN5C)cc4cn3)c(F)cc12 (relative stereo) [Example 102, 1-(9-(2-((rel-S)-2,6-dioxopiperidin-3-yl)-1-oxoisoindolin-4-yl)non-8-yn-1-yl)-5-fluoro-3-methyl-N-(2-((R)-1-methylpyrrolidin-2-yl)-1H-pyrrolo[3,2-c]pyridin-6-yl)-1H-indazole-6-carboxamide] | A (Category A: A≥75% degradation) | A (Category A: A≥75% degradation) | A (Category A: A≥75% degradation) | < 100
6 | Cc1nn(CCCCCCCC#Cc2cccc3c2CN([C@@H]2CCC(=O)NC2=O)C3=O)c2cc(C(=O)Nc3cc4[nH]c([C@H]5CCCN5C)cc4cn3)c(F)cc12 (relative stereo) [Example 103, 1-(9-(2-((rel-R)-2,6-dioxopiperidin-3-yl)-1-oxoisoindolin-4-yl)non-8-yn-1-yl)-5-fluoro-3-methyl-N-(2-((R)-1-methylpyrrolidin-2-yl)-1H-pyrrolo[3,2-c]pyridin-6-yl)-1H-indazole-6-carboxamide] | A (Category A: A≥75% degradation) | A (Category A: A≥75% degradation) | A (Category A: A≥75% degradation) | < 100
7 | Cc1nn(CC2CCN(c3cccc4c3CN(C3CCC(=O)NC3=O)C4=O)CC2)c2cc(C(=O)Nc3cc4[nH]c([C@H]5CCCN5C)cc4cn3)ccc12 (stereo in doubt) [Example 107, 1-((1-(2-((rel-S)-2,6-dioxopiperidin-3-yl)-1-oxoisoindolin-4-yl)piperidin-4-yl)methyl)-3-methyl-N-(2-((R)-1-methylpyrrolidin-2-yl)-1H-pyrrolo[3,2-c]pyridin-6-yl)-1H-indazole-6-carboxamide] | A (Category A: A≥75% degradation) | A (Category A: A≥75% degradation) | A (Category A: A≥75% degradation) | < 100
8 | Cc1nn(CCCCCCCC#Cc2ccc3c(c2)n(C)c(=O)n3C2CCC(=O)NC2=O)c2cc(C(=O)Nc3cc4[nH]c([C@H]5CCCN5C)cc4cn3)ccc12 (stereo partly drawn) [Example 39, 1-(9-(1-(2,6-dioxopiperidin-3-yl)-3-methyl-2-oxo-2,3-dihydro-1H-benzo[d]imidazol-5-yl)non-8-yn-1-yl)-3-methyl-N-(2-((R)-1-methylpyrrolidin-2-yl)-1H-pyrrolo[3,2-c]pyridin-6-yl)-1H-indazole-6-carboxamide] | A (Category A: A≥75% degradation) | A (Category A: A≥75% degradation) | A (Category A: A≥75% degradation) | < 100
9 | Cc1nn(CCCCCCCC#Cc2ccc(F)c3c2CN(C2CCC(=O)NC2=O)C3=O)c2cc(C(=O)Nc3cc4[nH]c([C@H]5CCCN5C)cc4cn3)ccc12 (stereo partly drawn) [Example 52, 1-(9-(2-(2,6-dioxopiperidin-3-yl)-7-fluoro-1-oxoisoindolin-4-yl)non-8-yn-1-yl)-3-methyl-N-(2-((R)-1-methylpyrrolidin-2-yl)-1H-pyrrolo[3,2-c]pyridin-6-yl)-1H-indazole-6-carboxamide] | A (Category A: A≥75% degradation) | A (Category A: A≥75% degradation) | A (Category A: A≥75% degradation) | < 100
10 | Cc1nn(CCCCCCCC#Cc2cccc3c2CN(C2CCC(=O)NC2=O)C3=O)c2cc(C(=O)Nc3cc4[nH]c([C@H]5CCCN5C)c(Cl)c4cn3)ccc12 (stereo partly drawn) [Example 53, N-(3-chloro-2-((R)-1-methylpyrrolidin-2-yl)-1H-pyrrolo[3,2-c]pyridin-6-yl)-1-(9-(2-(2,6-dioxopiperidin-3-yl)-1-oxoisoindolin-4-yl)non-8-yn-1-yl)-3-methyl-1H-indazole-6-carboxamide] | A (Category A: A≥75% degradation) | A (Category A: A≥75% degradation) | A (Category A: A≥75% degradation) | < 100
11 | Cc1nn(CCCCCCCCC#Cc2cccc3c2CN(C2CCC(=O)NC2=O)C3=O)c2cc(C(=O)Nc3cc4[nH]c([C@H]5CCCN5C)cc4cn3)ccc12 (stereo partly drawn) [Example 54, 1-(10-(2-(2,6-dioxopiperidin-3-yl)-1-oxoisoindolin-4-yl)dec-9-yn-1-yl)-3-methyl-N-(2-((R)-1-methylpyrrolidin-2-yl)-1H-pyrrolo[3,2-c]pyridin-6-yl)-1H-indazole-6-carboxamide] | A (Category A: A≥75% degradation) | A (Category A: A≥75% degradation) | A (Category A: A≥75% degradation) | < 100
12 | CN1CCC[C@@H]1c1cc2cnc(NC(=O)c3ccc4cnn(CCCCCCCC#Cc5cccc6c5CN(C5CCC(=O)NC5=O)C6=O)c4c3)cc2[nH]1 (stereo partly drawn) [Example 55, 1-(9-(2-(2,6-dioxopiperidin-3-yl)-1-oxoisoindolin-4-yl)non-8-yn-1-yl)-N-(2-((R)-1-methylpyrrolidin-2-yl)-1H-pyrrol[3,2-c]pyridin-6-yl)-1H-indazole-6-carboxamide] | B (Category B: 50%≤B<75% degradation) | A (Category A: A≥75% degradation) | A (Category A: A≥75% degradation) | < 100
